According to US20130224151A1, “Use of FAAH Inhibitors for Treating Abdominal, Visceral and Pelvic Pain” (UNITED STATES OF AMERICA, priority 2010, published 2013):

System: Female Wistar rats
Experiment: Partial restraint stress-induced hyperalgesia model
Assay type: in vivo, rat
Conditions: 3 mg/kg or 10 mg/kg SC one hour prior to 2 h PRS, CRD 15 minutes after PRS
Experimental: Female Wistar rats surgically prepared for electromyography as described in Example 1 were used to evaluate the effects of the FAAH inhibitors (a) compound A or (b) compound B, on colorectal sensitivity and compliance after a 2 hour partial restraint stress session.
Partial restraint stress (PRS), a relatively mild stress, was induced as previously described (Morteau et al. Dig. Dis. Sci. 1994: 39:1239-48; “Guanylate cyclase C-mediated antinociceptive effects of linaclotide in rodent models of visceral pain”, Eutamene H, Bradesi S, Larauche M, Theodorou V, Beaufrand C, Ohning G, Fioramonti J, Cohen M, Bryant A P, Kurtz C, Currie M G, Mayer E A, Bueno L, Neurogastroenterology and motility —2010 Volume: 22 p. 312-322; “Stress-induced changes in intestinal transit in the rat: a model for irritable bowel syndrome”, Williams C L, Villar R G, Peterson J M, Burks T F, Gastroenterology—1988 p. 611-21). Female rats were lightly anesthetized with diethyl ether and their shoulders, upper forelimbs and thoracic trunk were wrapped in a confining harness of paper tape to restrict, but not prevent body movements. Control sham-stress animals were anesthetized but not wrapped. […]
Rats were treated orally with compound A (30 mg/kg in DMSO/cremophor/isotonic saline (1:1:8 v:v:v), n=8), or vehicle only (DMSO/cremophor/isotonic saline (1:1:8 v:v:v), 1 mL, n=9) with or without 2 hour PRS sessions. The number of abdominal contractions was recorded by electromyography per 5-minute period (y axis) for each distension pressure of 0 mmHg, 15 mmHg, 30 mmHg, 45 mmHg and 60 mmHg (x axis); the ? symbols represent the results for the control+vehicle group (n=9); the symbols ? represent the results for the stress+vehicle group (n=9); the symbols ? represent the results for the stress+compound A group (n=8). Data are mean values with SEM.
Rats were treated orally with compound B (30 mg/kg in DMSO/cremophor/isotonic saline (1:1:8 v:v:v), n=9), or vehicle only (DMSO/cremophor/isotonic saline (1:1:8 v:v:v), 1 mL, n=9) with or without 2 hour PRS sessions. The number of abdominal contractions was recorded by electromyography per 5-minute period (y axis) for each distension pressure of 0 mmHg, 15 mmHg, 30 mmHg, 45 mmHg and 60 mmHg (x axis); the symbols ? represent the results for the control+vehicle group (n=9); the symbols ? represent the results for the stress+vehicle group (n=9); and the symbols ? represent the results for the stress+compound B group (n=9). Data are mean values with SEM.
The effect of FAAH inhibitor URB597 was tested at 3 mg/kg and 10 mg/kg in the PRS model of visceral hyperalgesia essentially as described in Examples 1 and 2. URB597 was formulated as a suspension in vehicle [DMSO/cremophor/isotonic saline (1:1:8 v:v:v)]. […]

Compound: NC(=O)c1cccc(-c2cccc(OC(=O)NC3CCCCC3)c2)c1 [URB597, 3′-(aminocarbonyl) biphenyl-3-yl cyclohexyl carbamate, reference compound]
- number of abdominal contractions (antihyperalgesic effect) in PRS model: did not exhibit an antihyperalgesic effects
- number of abdominal contractions (antihyperalgesic effect) in PRS model (listed as URB-597): no differences in number of abdominal contractions were observed
